# According to US12629424B2, “Targeting Pleckstrin-2 for treating cancer” (Northwestern University, priority 2018, dated 2026):
# pIC50, pKd: −log10 of the molar value.
# Assays:
# GST-Plek2 [1] = molecular target: T1, GST-Plek2 (Homo sapiens, UniProt Q9NYT0); test: isothermal titration calorimetry (ITC) of NUP-17d and its enantiomers with Plek2; assay type: binding; conditions: PBS with 0.5% DMSO, 200 μM compound into 20 μM GST-Plek2; for pKd: FIG. 17, general method: MicroCal ITC200, 25° C
# T1 construct: made in house
# T1 sequence (Q9NYT0 1-353): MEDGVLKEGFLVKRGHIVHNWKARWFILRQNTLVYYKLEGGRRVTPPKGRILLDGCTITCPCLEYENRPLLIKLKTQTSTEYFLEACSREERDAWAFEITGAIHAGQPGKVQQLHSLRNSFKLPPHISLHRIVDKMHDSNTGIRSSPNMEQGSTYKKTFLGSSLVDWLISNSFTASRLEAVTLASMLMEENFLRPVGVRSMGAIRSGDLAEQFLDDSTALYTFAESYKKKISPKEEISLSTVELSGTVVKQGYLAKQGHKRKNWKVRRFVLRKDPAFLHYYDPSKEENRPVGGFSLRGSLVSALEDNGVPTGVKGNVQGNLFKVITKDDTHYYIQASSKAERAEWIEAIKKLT
# Description: (§1) FIG. 4. NUP-17 directly targets and binds to Plek2. (A) Plek2 was overexpressed in mouse fetal liver Ter119 negative erythroblasts. NUP-17 (40 μM) were added in the control cells and Plek2 overexpressed cells. Cell number was calculated 48 hours after culture. (B) Plek2 was overexpressed in Cos-7 cells. Phalloidin 647 was used to stain actin in the indicated cells. 10 μM of NUP-17 was used. (C) Quantitative analysis of B. (D) ITC experiments using the microCal ITC200 instrument. 200 μM NUP-17 was titrated into a solution of 20 μM GST control or GST-Plek2. *P<0.05; *** P<0.001. 17 represents NUP-17.
# (§2) FIG. 17. Isothermal titration calorimetry (ITC) experiments of NUP-17d and its enantiomers. -17-d: delta H=−1.9 kcal/mol delta S=+22.9 cal/molK; -17-1b: delta H=−2.2 kcal/mol delta S=+22.8 cal/molK; -17-2b: delta H=−1.5 kcal/mol delta S=+24.3 cal/molK; -17-1a: delta H=−5.3 kcal/mol delta S=+7.3 cal/molK; and -17-2a: delta H=−4.2 kcal/mol delta S=+13.9 cal/molK.
# (§3) To confirm that the inhibitory effect of NUP-17 on the proliferation and differentiation of fetal liver erythroid cells is due to Plek2 binding, we overexpressed Plek2 in the fetal liver cells and treated the cells with NUP-17. […] In addition, we also overexpressed Plek2 in Cos-7 cells, which induced prominent lamellipodia formation as previously reported (13).
# Biophysical Assays and Counter-Screening. To confirm the interaction of the optimized compounds with Plek2, we will perform isothermal calorimetry (ITC) using the recombinant protein GST-Plek2 or Flag-tagged Plek2 we have produced. Specifically, MicroCal ITC200 instrument (GE Healthcare) with the jacket temperature will set at 25° C. The protein and our compound solutions will be prepared in PBS with 0.5% DMSO. Titrations of 200 μM compound into 20 μM GST-Plek2 solutions will be sufficient for 15 injections of 2.5 μl each with 120 seconds spacing between injections and a mixing speed at 900 rpm. An initial 0.1 μl injection will subsequently be removed during data analysis. A control experiment will be performed by titrating 200 μM compound into a solution of 20 μM GST. […]
# GST-Plek2 [2] = molecular target: T1, GST-Plek2; test: Isothermal titration calorimetry (ITC) binding to GST-tagged Plek2; conditions: FIG. 17
# Description: as §1, §2, §3
# Biophysical Assays and Counter-Screening. […]
# [3] = test system: Plek2-overexpressed Cos-7 cells; test: Lamellipodia formation assay in Plek2-overexpressed Cos-7 cells (phalloidin actin stain); assay type: cell-based; conditions: 10 μM
# Description: as §1
# FIG. 5. Identification of a potent analog of NUP-17. (A) NUP-17d was analyzed for the inhibitory effects on fetal liver erythroblasts as in FIG. 3. Indicated doses were used. (B) The structure of NUP-17d. (C) Plek2 was overexpressed in Cos-7 cells. Phalloidin 647 was used to stain actin in the indicated cells. 10 μM of NUP-17 and NUP-17d were used. (D) Quantitative analysis of C. **P<0.01; *** P<0.001. 17 and 17d represent NUP-17 and NUP-17d, respectively.
# To confirm that the inhibitory effect of NUP-17 on the proliferation and differentiation of fetal liver erythroid cells is due to Plek2 binding, we overexpressed Plek2 in the fetal liver cells and treated the cells with NUP-17. […]
# [4] = test system: mouse fetal liver erythroid progenitors; test: Proliferation of mouse fetal liver erythroid progenitors cultured in erythropoietin containing medium (Plek2 functional screening system); assay type: cell-based; conditions: mouse fetal liver erythroblasts, Epo medium
# Description: FIG. 3. NUP-17 inhibits Plek2 function in fetal liver erythropoiesis. (A) Mouse Ter119 (a mature erythroid cell marker) negative erythroblasts were purified and cultured for two days (D0-D2). The protein levels of Plek2 and Hsc70 loading control were analyzed by a Western blot assay. (B) The structure of NUP-17. (C-D) The proliferation and enucleation (DNA negative) profiles of cells from A treated with different concentration of NUP-17 for 48 hours. (E) Simulated Plek2 DEP domain interaction with NUP-17 using Schrodinger software. Amino acids that are potentially critical for the interaction are highlighted in yellow. *P<0.05; ** P<0.01; *** P<0.001.
# as §1, with “200 μM NUP-17 was titrated into a solution of 20 μM GST control or GST-Plek2. *P<0.05; *** P<0.001. 17 represents NUP-17.” left out
# FIG. 5. […] (A) NUP-17d was analyzed for the inhibitory effects on fetal liver erythroblasts as in FIG. 3. […] (D) Quantitative analysis of C. **P<0.01; *** P<0.001. […]
# FIG. 11. […] Analogs of NUP-17d were analyzed for their effect on fetal liver erythroblast proliferation as in FIG. 3. […]
# Plek2 = molecular target: T2, Plek2 (Homo sapiens, UniProt Q9NYT0); test: Plek2-lipid binding (protein-lipid overlay); conditions: data not shown
# T2 construct: we examined the ability of full-length protein to adhere to various phospholipids
# T2 sequence (Q9NYT0 1-353): T1 sequence (Q9NYT0 1-353)
# Description: (§4) FIG. 7. Plek2 binds to PtdIns(3,4)P2 and is critical for the PI3K signaling pathway. […] (B) Plek2 membrane association and cell spreading are PI3K dependent. Jurkat cells expressing GFP fused to the amino-terminus of wild-type Plek2 were plated on fibronectin. Real-time confocal imaging of live cells was performed. Shown is a cell expressing Plek2 before and after inhibition of PI3K with 100 nM wortmannin. (C) Bone marrow lineage negative cells from the indicated mice were treated with 2 units erythropoietin for the indicated amount of time (minutes). The level of Phospho-Akt and total Akt were analysis by Western blot assays. (D) Same as C except wild type bone marrow cells were used. 10 μM NUP-17d was used. The levels of the indicated proteins were analyzed by Western blot assays. (E) Kaplan-Meier survival analysis of indicated mice. Ptenfl/fl mice were crossed with Mx-Cre and Plek2 whole body knockout mice. The deletion of Pten in the hematopoietic tissues was induced by poly-IC injection. N=5 in each group. P=0.0067 between Ptenfl/flMx-Cre and Ptenfl/flMx-Cre, Plek2 KO. (F) Hematoxylin and eosin stain of the lungs from representative mice in E. Scale bar: 100 μm.
# Rationale and Preliminary Data. […] To define the lipid binding specificity of Plek2, we examined the ability of full-length protein to adhere to various phospholipids.
# [5] = test system: Epo-induced myeloproliferation in wild-type mice; test: Erythropoietin (Epo) injection mouse model; assay type: in vivo
# phosphorylation of Akt = test: Akt phosphorylation in erythropoietin-treated bone marrow lineage negative cells (Western blot); assay type: cell-based, mouse; conditions: wild type bone marrow lineage negative cells, 10 μM
# Description: as §4
# To further determine the role of Plek2 in PI3K pathway, we overexpressed GFP-fusion Plek2 in Jurkat cells. […]
# JAK2V617F knockin mice = test: JAK2V617F knockin MPN mouse model; assay type: in vivo; conditions: 25 mg/kg once every two days, one month
# Description: FIG. 15A and FIG. 15B. Compound NUP-17d ameliorates myeloproliferation and thrombosis in JAK2^V617F knockin mice. FIG. 15A. RBC and WBC count of indicated mice after NUP-17d treatment. Two-month-old JAK2^V617F knockin mice were treated with NUP-17d once every two days for three weeks. Wild type (WT) littermate control mice were used for comparison *P<0.05; ** P<0.01; *** P<0.001. FIG. 15B. H&E stain of the spleen and lung sections. Inserted panels with high magnification reveal vascular occlusions. Scale bars: 100 μm.
# We tested the effects of Plek2 inhibitors in the JAK2^V617F knockin MPN mouse model. (See FIGS. 15A and 15B). The same dosage and dosing schedule of NUP-17d (25 mg/kg, once every two days) were applied to JAK2^V617F knockin mice as those applied to the Epo model. We have treated the mice for one month. […] (See FIG. 15A). […] (See FIG. 15B).
# [6] = 40 mg/kg every 2 days for 8 days
smiles,measurement,setting,value
CN1CCN([C@@H](c2ccc(Cl)cc2)[C@H](O)C(=O)c2c[nH]c3ccccc23)CC1 [17d-1b],pKd,GST-Plek2 [1],6.45
CN1CCN(C(c2ccc(Cl)cc2)C(O)C(=O)c2c[nH]c3ccccc23)CC1 (stereo not shown) [17d],pKd,GST-Plek2 [1],6.40
CN1CCN([C@H](c2ccc(Cl)cc2)[C@@H](O)C(=O)c2c[nH]c3ccccc23)CC1 [17d-1a],Kd,"GST-Plek2 [1]; FIG. 17, value printed in uM, general method: MicroCal ITC200, 25° C",2.12 µM
CN1CCN(C(c2ccc(Cl)cc2)C(O)C(=O)c2c[nH]c3ccccc23)CC1 (stereo not shown) [NUP-17d],ITC delta H,GST-Plek2 [2],-1.9 kcal/mol
same,ITC delta S,GST-Plek2 [2],+22.9 cal/molK
same,reversal of lamellipodia in Plek2 overexpressed Cos-7 cells,[3],more potent inhibition
same,pIC50,[4],> 5.00
same,disruption of Plek2-lipid binding,Plek2,did not disrupt Plek2-lipid binding
same,Epo-induced erythrocytosis in spleen red pulp and lung vasculature (histology),[5]; [6],markedly ameliorated
same,Epo-induced leukocytosis,[5]; [6],significantly reduced
same,Epo-induced reticulocytosis,[5]; [6],significantly reduced
same,Epo-induced splenomegaly,[5]; [6],significantly reduced
same,Epo-induced vascular occlusions,[5]; [6],significantly reduced
same,tolerability,"[5]; 40 mg/kg, 2 days, preliminary studies",well-tolerated
same,red blood cell count,"[5]; Epo 5,000 U/kg every 2 days, compound 40 mg/kg every 2 days for 8 days, 3 weeks",did not significantly reduce
same,hematologic or other abnormalities in treated mice,[5]; during the experiments,no hematologic or other abnormalities
same,phosphorylation of Akt,phosphorylation of Akt,significantly inhibited
same,WBC count,JAK2V617F knockin mice,largely normalized
same,red blood cell count,JAK2V617F knockin mice,significantly reduced
same,side effects with the treatment,JAK2V617F knockin mice,no gross side effects
same,spleen size and extramedullary erythropoiesis,JAK2V617F knockin mice,markedly reduced
same,vascular occlusions in the lungs,JAK2V617F knockin mice,dramatically ameliorated
